Data as given in article PMC10495264 (Nature Cell Biology, 2023).

Key:
yeast cells = assay: Drop spot growth assays on rapamycin and/or cerulenin plates; type: cell-based, Saccharomyces cerevisiae; conditions: low / sublethal doses combined
Procedure: Yeast cells (Saccharomyces cerevisiae) were cultured in liquid SC medium (1.7 g l^−1 yeast nitrogen base (cat. no. 1545, CONDA), 5 g l^−1 ammonium sulfate (cat. no. 4808211, MP Biomedicals), 20 g l^−1 glucose (cat. no. 1422, AppliChem), 2 g l^−1 amino acid dropout –His (D9520, US Biological) and 35 mg l^−1 histidine (A1341, AppliChem) at 30 °C to the exponential growth phase, unless otherwise stated in the figure legends. All yeast strains used in this study are listed in Supplementary Table 1.

[1] = tested on: mTOR and FASN malonylation; assay: Malonylation of immunopurified mTOR and FASN (anti-Mal-K) from HEK293FT cells; type: cell-based, human
Procedure: Protein malonylation was assayed by immunoblotting using a Mal-K-specific antibody.

TORC1 = target: T1, TORC1 (Saccharomyces cerevisiae, UniProt P35169); assay: Yeast TORC1 kinase activity assays (radioactive IVK, Lst4^Loop substrate); type: biochemical; conditions: for In vitro TORC1 kinase assay - CoA compounds, relative activity, Mean: Fig. 8b; for In vitro TORC1 kinase assay - Mal-CoA/ATP competition, relative activity, Mean: Fig. 8h
T1 construct: made in house; host or cells: S. cerevisiae strain NIC005 ([RL170-2c] LEU2:GFP-TOR1)
Procedure: TORC1 was purified from yeast cells and radioactive IVK assays were performed essentially as previously described. Briefly, kinase reactions (total volume, 30 μl) were performed with 400 ng of purified His6–Lst4^Loop protein and 60 ng TORC1 in kinase buffer (50 mM HEPES NaOH pH 7.5 and 150 mM NaCl). […] All reactions were carried out at 30 °C for 10 min and stopped with the addition of 3×sample buffer (50 mM Tris–HCl pH 6.8, 5% SDS, 0.05% bromophenol blue, 630 mM DTT and 30% glycerol) and heating at 65 °C for 10 min. Proteins were separated by SDS–PAGE and stained in-gel with SYPRO Ruby (S4942, Sigma-Aldrich) as the loading control. Substrate phosphorylation was analysed by autoradiography using a Typhoon FLA 9500 phosphorimager (GE Healthcare) and the raw density of the signals was quantified using the gel analysis tool of ImageJ.

[2] = target: T2, mTORC1 containing mTOR^K1218R; assay: mTORC1 IVK with SBP-tagged mTOR^K1218R and HA–Raptor; type: biochemical, human; conditions: presence or absence of 5 mM Mal-CoA
T2 construct: expressed in transfected cells; host or cells: HEK293FT
Procedure: Briefly, cells of a near-confluent well of a six-well plate were lysed in CHAPS IP buffer (50 mM Tris pH 7.5, 0.3% CHAPS detergent, 150 mM NaCl, 50 mM NaF, 2 mM Na-vanadate and 0.011 g ml^−1 β-glycerophosphate) supplemented with 1×PhosSTOP phosphatase inhibitors and 1×EDTA-free cOmplete protease inhibitors for 10 min on ice, and the samples were clarified by centrifugation (20,000g, 15 min, 4 °C). Each supernatant was split in three equal fractions and each fraction was incubated (4 °C with rotation) with 20 μl of pre-washed Streptavidin Sepharose (cat. no. 90100484, Cytiva) for 1 h. The beads were then washed three times with CHAPS IP wash buffer (50 mM Tris pH 7.5, 0.3% CHAPS, 150 mM NaCl and 50 mM NaF) and either used for IVK assays (‘Mammalian mTORC1 kinase activity assays’ section) or boiled in 2×SDS loading buffer (5 min, 95 °C) and analysed by SDS–PAGE and immunoblotting to assess the stability of the mTOR complex.
In vitro activity assays were performed as described earlier for endogenous mTOR complexes.
Endogenous mTOR was immunoprecipitated in the presence or absence of 1 mM Mal-CoA (added directly in the lysates 5 min previous to addition of the antibody). Co-immunoprecipitation of Raptor and mLST8 assayed by immunoblotting; n = 2 independent experiments. c, Mal-CoA inhibits mTORC1 independently from mTOR malonylation. […] Data are the mean ± s.d. (a) or mean ± s.e.m. […]

T1 sequence (P35169 whole entry): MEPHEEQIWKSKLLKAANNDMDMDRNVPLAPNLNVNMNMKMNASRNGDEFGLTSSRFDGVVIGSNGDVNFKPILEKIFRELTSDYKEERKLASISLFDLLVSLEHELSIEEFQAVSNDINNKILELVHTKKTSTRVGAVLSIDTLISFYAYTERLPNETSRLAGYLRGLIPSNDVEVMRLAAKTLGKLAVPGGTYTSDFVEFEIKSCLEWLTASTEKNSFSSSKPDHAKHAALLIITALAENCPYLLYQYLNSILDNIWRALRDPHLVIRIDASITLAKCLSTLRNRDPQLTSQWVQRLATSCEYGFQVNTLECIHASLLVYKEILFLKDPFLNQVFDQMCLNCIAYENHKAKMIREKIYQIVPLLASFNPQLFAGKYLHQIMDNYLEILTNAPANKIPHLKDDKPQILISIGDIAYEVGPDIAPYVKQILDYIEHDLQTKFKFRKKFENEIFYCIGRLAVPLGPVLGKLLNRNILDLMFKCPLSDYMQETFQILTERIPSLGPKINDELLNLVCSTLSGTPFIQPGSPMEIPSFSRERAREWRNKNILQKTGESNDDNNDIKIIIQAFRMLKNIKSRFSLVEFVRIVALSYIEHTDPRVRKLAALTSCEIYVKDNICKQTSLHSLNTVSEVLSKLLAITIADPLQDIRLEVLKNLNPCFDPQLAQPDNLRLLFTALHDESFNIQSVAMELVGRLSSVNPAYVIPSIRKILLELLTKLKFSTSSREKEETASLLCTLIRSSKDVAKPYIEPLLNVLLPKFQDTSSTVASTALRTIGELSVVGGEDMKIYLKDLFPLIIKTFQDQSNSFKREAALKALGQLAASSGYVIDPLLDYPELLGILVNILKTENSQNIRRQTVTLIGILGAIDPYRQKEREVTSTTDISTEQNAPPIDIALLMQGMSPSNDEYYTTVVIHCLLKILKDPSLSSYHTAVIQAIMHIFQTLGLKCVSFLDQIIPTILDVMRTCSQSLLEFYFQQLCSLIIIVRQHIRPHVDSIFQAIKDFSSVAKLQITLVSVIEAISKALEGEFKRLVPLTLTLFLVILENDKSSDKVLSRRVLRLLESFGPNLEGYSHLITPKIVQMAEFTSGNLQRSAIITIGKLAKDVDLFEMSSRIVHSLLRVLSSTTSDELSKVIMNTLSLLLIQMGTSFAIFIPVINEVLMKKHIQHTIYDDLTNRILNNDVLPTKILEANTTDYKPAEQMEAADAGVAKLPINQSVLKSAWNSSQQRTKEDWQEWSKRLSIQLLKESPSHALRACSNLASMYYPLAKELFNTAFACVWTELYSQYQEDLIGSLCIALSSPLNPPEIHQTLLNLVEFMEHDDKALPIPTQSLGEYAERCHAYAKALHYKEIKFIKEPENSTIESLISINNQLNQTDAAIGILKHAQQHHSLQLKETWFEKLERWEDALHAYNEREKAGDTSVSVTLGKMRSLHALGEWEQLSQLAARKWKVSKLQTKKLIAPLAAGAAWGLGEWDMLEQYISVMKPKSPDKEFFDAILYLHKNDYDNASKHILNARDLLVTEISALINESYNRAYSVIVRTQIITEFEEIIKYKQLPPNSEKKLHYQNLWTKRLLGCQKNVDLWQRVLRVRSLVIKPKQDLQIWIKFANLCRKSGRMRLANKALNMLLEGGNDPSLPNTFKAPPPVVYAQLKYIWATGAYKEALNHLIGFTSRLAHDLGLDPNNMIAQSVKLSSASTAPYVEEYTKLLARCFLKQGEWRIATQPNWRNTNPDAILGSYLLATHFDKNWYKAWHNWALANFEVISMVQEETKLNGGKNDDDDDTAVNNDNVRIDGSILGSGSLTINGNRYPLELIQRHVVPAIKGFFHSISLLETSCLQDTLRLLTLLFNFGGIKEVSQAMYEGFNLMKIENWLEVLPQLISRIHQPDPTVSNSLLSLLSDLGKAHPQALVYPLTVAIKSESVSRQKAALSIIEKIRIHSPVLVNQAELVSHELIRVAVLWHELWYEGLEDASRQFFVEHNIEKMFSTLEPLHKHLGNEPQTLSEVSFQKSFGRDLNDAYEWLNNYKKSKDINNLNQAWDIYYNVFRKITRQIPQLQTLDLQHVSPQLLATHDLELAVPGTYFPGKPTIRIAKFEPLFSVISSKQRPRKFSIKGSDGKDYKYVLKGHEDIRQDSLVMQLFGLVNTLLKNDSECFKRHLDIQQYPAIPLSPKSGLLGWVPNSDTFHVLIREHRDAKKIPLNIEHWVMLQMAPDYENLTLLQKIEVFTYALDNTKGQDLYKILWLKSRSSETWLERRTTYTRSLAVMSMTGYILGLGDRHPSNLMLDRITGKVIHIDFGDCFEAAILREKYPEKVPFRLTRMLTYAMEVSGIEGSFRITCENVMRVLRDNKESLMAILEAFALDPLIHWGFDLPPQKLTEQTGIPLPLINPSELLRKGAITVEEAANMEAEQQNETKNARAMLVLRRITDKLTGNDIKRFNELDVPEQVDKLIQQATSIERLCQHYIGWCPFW
T1 sequence (Q08921 whole entry partner): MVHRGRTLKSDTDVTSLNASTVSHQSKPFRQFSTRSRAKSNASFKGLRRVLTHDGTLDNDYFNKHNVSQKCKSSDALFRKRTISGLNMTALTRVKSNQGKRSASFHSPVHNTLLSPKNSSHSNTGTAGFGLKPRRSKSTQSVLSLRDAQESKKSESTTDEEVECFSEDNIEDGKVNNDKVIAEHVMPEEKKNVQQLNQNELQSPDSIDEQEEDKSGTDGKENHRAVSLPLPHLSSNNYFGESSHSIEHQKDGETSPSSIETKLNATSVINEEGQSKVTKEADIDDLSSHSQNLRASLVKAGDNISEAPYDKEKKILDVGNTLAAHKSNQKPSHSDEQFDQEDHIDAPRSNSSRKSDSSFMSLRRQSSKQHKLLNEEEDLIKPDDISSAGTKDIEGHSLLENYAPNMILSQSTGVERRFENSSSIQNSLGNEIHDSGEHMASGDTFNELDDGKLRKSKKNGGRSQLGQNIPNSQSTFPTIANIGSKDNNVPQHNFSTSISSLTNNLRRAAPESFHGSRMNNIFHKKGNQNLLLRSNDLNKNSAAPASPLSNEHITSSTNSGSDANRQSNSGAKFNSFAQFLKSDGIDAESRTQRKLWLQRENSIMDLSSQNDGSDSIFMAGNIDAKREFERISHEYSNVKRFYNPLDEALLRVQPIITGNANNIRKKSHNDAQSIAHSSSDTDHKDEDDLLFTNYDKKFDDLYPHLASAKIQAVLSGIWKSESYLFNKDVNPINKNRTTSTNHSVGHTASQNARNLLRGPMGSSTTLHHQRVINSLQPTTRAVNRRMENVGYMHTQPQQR
T1 sequence (P38873 whole entry partner): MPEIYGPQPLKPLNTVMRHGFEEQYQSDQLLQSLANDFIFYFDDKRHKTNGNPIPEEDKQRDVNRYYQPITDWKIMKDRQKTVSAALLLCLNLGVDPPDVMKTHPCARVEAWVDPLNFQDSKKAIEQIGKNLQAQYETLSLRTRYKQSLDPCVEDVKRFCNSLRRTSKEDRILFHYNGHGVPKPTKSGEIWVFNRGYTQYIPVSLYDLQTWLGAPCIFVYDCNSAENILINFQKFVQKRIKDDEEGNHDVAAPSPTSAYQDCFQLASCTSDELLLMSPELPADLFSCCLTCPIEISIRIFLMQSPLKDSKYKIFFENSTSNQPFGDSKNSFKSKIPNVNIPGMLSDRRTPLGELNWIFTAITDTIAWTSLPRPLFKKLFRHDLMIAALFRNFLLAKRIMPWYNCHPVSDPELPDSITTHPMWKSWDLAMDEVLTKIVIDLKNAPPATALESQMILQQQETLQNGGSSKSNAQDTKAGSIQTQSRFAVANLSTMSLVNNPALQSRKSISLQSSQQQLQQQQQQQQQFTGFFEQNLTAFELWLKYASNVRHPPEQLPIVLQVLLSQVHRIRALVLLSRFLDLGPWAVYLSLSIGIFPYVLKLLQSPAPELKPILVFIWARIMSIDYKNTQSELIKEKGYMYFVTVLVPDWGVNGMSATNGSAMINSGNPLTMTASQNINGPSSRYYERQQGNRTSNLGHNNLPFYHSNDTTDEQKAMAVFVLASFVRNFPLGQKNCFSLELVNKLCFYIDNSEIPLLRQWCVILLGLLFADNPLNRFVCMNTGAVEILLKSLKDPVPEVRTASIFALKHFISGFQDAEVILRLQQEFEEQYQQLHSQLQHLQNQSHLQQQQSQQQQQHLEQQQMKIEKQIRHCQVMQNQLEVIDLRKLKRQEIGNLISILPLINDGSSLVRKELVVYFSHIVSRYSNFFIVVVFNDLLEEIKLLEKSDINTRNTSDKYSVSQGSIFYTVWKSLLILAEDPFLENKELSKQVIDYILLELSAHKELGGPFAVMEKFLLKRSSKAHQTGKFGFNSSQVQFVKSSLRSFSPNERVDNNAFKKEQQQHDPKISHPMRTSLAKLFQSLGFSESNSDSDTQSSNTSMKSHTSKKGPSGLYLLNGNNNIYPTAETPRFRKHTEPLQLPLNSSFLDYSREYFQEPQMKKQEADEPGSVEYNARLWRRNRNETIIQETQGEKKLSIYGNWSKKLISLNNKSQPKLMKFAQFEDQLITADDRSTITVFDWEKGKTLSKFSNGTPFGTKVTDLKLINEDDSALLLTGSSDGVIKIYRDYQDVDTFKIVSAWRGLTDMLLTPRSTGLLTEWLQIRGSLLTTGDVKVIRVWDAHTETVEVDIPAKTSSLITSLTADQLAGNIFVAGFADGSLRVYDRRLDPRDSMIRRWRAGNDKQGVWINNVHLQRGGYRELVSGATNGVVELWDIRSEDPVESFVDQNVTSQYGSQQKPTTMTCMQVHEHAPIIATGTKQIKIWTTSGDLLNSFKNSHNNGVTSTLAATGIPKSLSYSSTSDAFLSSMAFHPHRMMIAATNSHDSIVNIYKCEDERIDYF
T1 sequence (P41318 whole entry partner): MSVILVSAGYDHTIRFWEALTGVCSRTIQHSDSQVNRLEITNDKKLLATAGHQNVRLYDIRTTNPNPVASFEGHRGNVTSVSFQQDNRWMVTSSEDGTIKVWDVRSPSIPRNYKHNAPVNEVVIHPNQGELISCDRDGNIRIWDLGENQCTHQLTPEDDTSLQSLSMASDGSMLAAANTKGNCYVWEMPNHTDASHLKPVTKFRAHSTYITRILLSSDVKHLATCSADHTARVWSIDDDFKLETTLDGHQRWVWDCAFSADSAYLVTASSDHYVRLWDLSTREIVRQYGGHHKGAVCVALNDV

Row | SMILES | combined effect of rapamycin and cerulenin on yeast growth (yeast cells) | lysine malonylation of immunopurified human FASN ([1]; cerulenin-treated (50 μM, 4 h) vs control) | malonylation of immunopurified human mTOR ([1]; control or cerulenin-treated (50 μM, 4 h)) | IC50 (TORC1) [µM] | Ki (TORC1) [µM] | In vitro TORC1 kinase assay - CoA compounds, relative activity, Mean (TORC1; compound 0.073 mM, normalised to this concentration) | In vitro TORC1 kinase assay - CoA compounds, relative activity, Mean (TORC1; compound 0.22 mM) | In vitro TORC1 kinase assay - CoA compounds, relative activity, Mean (TORC1; compound 2 mM) | In vitro TORC1 kinase assay - CoA compounds, relative activity, Mean (TORC1; compound 6 mM) | In vitro TORC1 kinase assay - Mal-CoA/ATP competition, relative activity, Mean (TORC1; Mal-CoA 2 mM, ATP 0.015 mM) | In vitro TORC1 kinase assay - Mal-CoA/ATP competition, relative activity, Mean (TORC1; Mal-CoA 2 mM, ATP 0.044 mM) | In vitro TORC1 kinase assay - Mal-CoA/ATP competition, relative activity, Mean (TORC1; Mal-CoA 2 mM, ATP 0.4 mM) | In vitro TORC1 kinase assay - Mal-CoA/ATP competition, relative activity, Mean (TORC1; Mal-CoA […], ATP 0.015 mM) | In vitro TORC1 kinase assay - Mal-CoA/ATP competition, relative activity, Mean (TORC1; Mal-CoA […], ATP 0.044 mM) | In vitro TORC1 kinase assay - Mal-CoA/ATP competition, relative activity, Mean (TORC1; Mal-CoA […], ATP 0.4 mM) | kinase activity of mTORC1 containing non-malonylatable mTOR^K1218R [2]
1 | C/C=C/C/C=C/CCC(=O)[C@H]1O[C@H]1C(N)=O [cerulenin] | additive effect | malonylation increasing further | unable to detect malonylation |  |  |  |  |  |  |  |  |  |  |  |  | 
2 | CC(C)(COP(=O)(O)OP(=O)(O)OCC1OC(n2cnc3c(N)ncnc32)C(O)C1OP(=O)(O)O)C(O)C(=O)NCCC(=O)NCCSC(=O)CC(=O)O (stereo not shown) [Mal-CoA, malonyl-CoA] |  |  |  | 334 | 760 | 1 | 0.8807 | 0.6407 | 0.5014 | 0.1115 | 0.189 | 0.6161 | 0.1191 | 0.2424 | 0.6289 | readily inhibited
